One assay deals with Motilin receptor (Homo sapiens, UniProt O43193).
In assay [1] the target is Growth hormone secretagogue receptor type 1 (Homo sapiens, UniProt Q92847).
For assay [2], the target named is cGMP-inhibited 3',5'-cyclic phosphodiesterase 3A (Homo sapiens, UniProt Q14432). In kind it is functional.
For assay [3], the target named is T1, Muscarinic acetylcholine receptor M2 (Homo sapiens, UniProt P08172).
T1 sequence (P08172 whole entry): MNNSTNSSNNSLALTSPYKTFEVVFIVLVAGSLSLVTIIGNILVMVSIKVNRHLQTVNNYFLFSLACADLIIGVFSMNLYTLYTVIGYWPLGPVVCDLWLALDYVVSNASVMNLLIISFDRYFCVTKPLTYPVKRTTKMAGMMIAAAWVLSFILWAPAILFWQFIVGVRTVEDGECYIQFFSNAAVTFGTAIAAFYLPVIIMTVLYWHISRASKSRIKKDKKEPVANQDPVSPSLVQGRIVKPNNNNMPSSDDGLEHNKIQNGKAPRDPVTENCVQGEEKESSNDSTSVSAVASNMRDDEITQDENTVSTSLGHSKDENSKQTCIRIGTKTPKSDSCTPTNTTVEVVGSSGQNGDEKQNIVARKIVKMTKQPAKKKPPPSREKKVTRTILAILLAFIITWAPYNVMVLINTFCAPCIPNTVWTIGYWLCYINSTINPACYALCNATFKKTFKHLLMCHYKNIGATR
In kind it is functional, cell-based.

Assay [4] addresses T2, Equilibrative nucleoside transporter 1 (Homo sapiens, UniProt Q99808).
T2 sequence (Q99808 whole entry): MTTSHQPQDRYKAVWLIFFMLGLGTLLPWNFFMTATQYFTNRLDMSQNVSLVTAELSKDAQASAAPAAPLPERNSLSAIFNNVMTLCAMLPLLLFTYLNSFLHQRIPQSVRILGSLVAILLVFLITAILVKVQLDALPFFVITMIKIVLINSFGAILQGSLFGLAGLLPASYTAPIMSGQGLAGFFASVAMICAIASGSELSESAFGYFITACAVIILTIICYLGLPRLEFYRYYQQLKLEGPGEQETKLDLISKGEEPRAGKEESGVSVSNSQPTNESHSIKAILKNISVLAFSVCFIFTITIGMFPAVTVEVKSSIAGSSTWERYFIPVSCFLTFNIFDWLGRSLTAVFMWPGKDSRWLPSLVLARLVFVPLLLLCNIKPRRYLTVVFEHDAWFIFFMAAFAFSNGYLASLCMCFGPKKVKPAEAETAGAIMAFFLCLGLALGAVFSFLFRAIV

Assay [5] addresses Delta-type opioid receptor (Homo sapiens, UniProt P41143).
The target of a further assay is D(1A) dopamine receptor (Homo sapiens, UniProt P21728). In kind it is functional, cell-based.
Chain of D(1A) dopamine receptor (P21728 whole entry): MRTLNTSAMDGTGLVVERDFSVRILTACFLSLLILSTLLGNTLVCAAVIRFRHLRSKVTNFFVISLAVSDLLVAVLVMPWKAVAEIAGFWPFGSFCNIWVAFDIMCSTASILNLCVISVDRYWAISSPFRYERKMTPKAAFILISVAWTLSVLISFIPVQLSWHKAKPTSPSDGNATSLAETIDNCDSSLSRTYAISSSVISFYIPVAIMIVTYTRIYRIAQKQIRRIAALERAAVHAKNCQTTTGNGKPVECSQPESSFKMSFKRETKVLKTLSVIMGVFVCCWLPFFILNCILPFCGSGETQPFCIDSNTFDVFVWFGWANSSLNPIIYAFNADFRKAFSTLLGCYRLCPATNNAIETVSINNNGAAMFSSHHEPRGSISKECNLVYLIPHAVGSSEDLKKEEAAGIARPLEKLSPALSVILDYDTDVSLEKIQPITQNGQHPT
Assay [6] has as its target T3, Cholecystokinin receptor type A (Homo sapiens, UniProt P32238).
T3 sequence (P32238 whole entry): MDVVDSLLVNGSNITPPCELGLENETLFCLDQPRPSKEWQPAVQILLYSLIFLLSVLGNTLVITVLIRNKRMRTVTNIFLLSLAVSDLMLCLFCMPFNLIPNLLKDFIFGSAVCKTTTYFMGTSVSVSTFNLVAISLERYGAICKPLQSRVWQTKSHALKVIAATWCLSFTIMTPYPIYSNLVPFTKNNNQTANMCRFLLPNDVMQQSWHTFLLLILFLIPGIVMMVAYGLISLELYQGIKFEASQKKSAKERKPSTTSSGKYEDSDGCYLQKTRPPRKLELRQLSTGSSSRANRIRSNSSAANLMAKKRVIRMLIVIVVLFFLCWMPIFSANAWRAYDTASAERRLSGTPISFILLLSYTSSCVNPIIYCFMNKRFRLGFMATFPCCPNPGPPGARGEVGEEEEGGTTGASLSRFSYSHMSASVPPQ

In assay [7] the target is T4, Alpha-2A adrenergic receptor (Homo sapiens, UniProt P08913).
T4 sequence (P08913 whole entry): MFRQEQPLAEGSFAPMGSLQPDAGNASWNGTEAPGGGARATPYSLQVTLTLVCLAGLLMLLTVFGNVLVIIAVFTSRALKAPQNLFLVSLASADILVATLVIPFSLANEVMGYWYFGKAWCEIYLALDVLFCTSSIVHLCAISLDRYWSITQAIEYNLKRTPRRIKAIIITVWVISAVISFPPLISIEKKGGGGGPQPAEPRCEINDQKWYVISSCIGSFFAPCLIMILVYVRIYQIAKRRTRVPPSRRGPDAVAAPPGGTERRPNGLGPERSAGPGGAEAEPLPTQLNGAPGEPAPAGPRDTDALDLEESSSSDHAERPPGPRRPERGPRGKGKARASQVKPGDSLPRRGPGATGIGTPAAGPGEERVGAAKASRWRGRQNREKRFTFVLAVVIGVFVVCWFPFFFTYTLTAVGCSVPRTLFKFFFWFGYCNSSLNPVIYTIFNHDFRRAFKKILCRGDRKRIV
In kind it is functional, cell-based.

For assay [8], the target named is Sodium-dependent dopamine transporter (Homo sapiens, UniProt Q01959).
Chain of Sodium-dependent dopamine transporter (Q01959 whole entry): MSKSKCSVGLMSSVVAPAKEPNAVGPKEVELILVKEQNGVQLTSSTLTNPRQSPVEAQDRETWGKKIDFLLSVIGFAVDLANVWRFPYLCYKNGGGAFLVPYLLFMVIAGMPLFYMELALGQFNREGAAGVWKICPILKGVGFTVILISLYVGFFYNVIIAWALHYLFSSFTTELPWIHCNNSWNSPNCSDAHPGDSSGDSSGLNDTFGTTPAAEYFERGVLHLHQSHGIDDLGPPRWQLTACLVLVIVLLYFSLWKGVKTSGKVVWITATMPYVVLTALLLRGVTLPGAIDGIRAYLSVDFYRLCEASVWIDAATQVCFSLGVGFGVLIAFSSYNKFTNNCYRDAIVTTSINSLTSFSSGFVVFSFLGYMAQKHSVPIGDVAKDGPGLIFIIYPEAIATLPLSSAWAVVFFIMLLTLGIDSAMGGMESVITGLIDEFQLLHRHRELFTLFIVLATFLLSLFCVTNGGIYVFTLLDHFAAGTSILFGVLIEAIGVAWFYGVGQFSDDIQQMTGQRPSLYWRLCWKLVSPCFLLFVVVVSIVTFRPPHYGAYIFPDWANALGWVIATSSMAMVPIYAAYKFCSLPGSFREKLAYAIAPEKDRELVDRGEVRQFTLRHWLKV
In assay [9] the target is T5, 5-hydroxytryptamine receptor 1A (Homo sapiens, UniProt P08908).
T5 sequence (P08908 whole entry): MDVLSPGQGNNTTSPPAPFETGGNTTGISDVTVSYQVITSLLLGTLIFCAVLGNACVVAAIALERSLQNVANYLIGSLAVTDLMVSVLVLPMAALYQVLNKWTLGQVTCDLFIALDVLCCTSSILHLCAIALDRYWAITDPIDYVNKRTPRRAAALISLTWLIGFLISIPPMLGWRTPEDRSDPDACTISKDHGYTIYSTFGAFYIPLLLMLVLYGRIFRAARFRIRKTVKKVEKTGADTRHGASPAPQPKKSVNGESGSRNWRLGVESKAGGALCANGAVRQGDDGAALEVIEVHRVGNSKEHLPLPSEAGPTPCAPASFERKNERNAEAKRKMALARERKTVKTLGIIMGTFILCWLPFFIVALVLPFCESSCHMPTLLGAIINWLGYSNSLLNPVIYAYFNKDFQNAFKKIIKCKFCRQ
In kind it is functional, cell-based.

For the next assay, the target named is Bile salt export pump (Homo sapiens, UniProt O95342). In kind it is functional.
Chain of Bile salt export pump (O95342 whole entry): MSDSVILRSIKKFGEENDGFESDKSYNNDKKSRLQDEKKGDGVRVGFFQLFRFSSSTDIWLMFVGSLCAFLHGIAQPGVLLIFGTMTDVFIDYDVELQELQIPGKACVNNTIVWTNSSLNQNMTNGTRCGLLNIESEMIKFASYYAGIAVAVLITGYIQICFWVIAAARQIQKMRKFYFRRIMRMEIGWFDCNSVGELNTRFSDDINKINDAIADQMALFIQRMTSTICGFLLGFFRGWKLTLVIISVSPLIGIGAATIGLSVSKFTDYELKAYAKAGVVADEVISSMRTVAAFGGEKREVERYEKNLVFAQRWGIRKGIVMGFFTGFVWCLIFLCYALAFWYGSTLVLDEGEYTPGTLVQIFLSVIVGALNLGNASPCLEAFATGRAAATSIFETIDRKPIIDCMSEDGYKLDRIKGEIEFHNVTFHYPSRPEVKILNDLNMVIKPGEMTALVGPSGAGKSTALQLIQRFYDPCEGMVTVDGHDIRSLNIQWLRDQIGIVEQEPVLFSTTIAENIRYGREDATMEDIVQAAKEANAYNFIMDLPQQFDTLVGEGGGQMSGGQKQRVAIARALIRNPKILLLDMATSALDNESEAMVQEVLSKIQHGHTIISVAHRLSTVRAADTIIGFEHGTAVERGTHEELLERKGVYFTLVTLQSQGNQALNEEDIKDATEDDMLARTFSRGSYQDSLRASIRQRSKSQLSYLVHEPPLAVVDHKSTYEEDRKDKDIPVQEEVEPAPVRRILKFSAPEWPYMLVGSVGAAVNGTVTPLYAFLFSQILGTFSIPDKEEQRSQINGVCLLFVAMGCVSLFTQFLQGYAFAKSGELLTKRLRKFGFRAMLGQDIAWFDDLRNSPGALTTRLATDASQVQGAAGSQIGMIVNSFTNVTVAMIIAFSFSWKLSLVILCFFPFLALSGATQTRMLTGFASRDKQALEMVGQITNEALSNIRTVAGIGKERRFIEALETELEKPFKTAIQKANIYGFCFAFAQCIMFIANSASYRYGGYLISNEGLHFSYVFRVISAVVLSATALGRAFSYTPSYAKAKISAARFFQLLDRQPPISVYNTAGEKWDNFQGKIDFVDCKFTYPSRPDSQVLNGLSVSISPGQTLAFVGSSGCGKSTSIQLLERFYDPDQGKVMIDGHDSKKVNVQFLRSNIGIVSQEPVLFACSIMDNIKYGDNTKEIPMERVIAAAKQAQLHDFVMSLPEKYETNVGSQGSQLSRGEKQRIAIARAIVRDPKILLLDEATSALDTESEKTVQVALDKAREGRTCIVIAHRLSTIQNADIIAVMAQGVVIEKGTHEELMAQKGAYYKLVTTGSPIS

Some results are limits rather than exact numbers.
Further: assay procedure not described here.

Chain of Delta-type opioid receptor (P41143 whole entry): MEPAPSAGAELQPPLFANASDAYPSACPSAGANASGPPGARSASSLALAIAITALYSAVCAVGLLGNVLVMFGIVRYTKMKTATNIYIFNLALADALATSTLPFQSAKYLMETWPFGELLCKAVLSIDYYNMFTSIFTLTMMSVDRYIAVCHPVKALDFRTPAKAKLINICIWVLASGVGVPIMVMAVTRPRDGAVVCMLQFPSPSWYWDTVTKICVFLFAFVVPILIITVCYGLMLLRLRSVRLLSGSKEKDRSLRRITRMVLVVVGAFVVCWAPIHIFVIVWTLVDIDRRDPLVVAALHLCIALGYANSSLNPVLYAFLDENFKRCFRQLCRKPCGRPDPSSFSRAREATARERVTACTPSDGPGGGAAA
Chain of Growth hormone secretagogue receptor type 1 (Q92847 whole entry): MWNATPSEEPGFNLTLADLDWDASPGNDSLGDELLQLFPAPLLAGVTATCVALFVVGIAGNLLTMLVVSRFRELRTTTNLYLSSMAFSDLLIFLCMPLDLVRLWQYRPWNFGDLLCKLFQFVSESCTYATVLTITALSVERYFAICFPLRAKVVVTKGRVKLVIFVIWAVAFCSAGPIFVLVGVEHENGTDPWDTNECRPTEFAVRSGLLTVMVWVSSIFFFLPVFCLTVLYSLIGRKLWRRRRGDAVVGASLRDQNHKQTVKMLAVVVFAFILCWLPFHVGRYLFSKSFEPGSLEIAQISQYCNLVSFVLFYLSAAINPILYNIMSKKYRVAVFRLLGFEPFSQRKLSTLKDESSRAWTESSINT
Chain of Motilin receptor (O43193 whole entry): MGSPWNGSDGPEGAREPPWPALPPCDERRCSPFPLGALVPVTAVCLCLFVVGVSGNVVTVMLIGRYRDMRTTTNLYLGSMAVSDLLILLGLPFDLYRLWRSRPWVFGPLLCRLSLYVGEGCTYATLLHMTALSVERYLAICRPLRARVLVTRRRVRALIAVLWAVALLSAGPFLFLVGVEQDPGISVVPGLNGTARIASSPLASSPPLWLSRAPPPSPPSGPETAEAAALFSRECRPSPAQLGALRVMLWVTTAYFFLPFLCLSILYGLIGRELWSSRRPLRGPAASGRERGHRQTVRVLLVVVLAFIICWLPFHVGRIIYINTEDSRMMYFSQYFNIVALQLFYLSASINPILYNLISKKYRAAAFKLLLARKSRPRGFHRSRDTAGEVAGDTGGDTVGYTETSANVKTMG
Chain of cGMP-inhibited 3',5'-cyclic phosphodiesterase 3A (Q14432 whole entry): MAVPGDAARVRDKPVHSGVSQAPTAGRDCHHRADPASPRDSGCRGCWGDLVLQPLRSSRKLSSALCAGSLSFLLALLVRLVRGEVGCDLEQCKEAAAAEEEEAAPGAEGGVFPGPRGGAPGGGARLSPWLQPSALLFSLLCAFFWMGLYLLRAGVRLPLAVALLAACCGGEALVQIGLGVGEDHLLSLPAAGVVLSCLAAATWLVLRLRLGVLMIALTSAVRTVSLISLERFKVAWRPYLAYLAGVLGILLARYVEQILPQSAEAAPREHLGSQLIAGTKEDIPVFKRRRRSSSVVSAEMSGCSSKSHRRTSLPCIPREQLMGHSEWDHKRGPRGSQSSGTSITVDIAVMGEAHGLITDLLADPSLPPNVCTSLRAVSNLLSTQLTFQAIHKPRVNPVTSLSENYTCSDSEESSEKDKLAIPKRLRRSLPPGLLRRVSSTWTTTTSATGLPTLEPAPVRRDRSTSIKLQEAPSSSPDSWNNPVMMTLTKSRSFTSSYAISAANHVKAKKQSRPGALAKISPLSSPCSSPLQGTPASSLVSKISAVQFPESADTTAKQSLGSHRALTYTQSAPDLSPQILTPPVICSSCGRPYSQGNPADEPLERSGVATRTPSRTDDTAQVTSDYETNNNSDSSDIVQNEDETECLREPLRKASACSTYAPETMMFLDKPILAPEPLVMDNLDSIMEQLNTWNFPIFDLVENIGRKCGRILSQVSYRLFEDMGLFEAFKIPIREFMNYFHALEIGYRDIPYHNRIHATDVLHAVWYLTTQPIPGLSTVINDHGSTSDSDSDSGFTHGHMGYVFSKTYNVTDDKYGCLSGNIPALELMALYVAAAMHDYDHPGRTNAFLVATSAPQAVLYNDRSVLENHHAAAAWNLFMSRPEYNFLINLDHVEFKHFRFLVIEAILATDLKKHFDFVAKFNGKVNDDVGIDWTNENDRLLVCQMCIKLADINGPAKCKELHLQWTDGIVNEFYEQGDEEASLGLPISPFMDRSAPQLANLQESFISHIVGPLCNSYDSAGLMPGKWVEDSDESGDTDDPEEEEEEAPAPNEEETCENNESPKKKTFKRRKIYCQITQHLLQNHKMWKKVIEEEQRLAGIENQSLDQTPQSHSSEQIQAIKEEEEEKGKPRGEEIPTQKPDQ

Take `CO/N=C(\C(=O)N[C@@H]1C(=O)N2C(C(=O)[O-])=C(C[N+]3(C)CCCC3)CS[C@H]12)c1csc(N)n1`: the AC50 (at Motilin receptor; in assay [1]; in assay [2]; in assay [3]; in assay [4]; in [5]) was greater than 300 µM each time. Moreover, the AC50 (at D(1A) dopamine receptor; in [6]; in [7]; in assay [8]; in [9]; on Bile salt export pump) was greater than 300 µM in each case.

In the case of `COC(=O)N[C@H](C(=O)N1CCC[C@H]1c1nc(-c2ccc(-c3ccc(-c4c[nH]c([C@@H]5CCCN5C(=O)[C@@H](NC(=O)OC)C(C)C)n4)cc3)cc2)c[nH]1)C(C)C`, the AC50 (at Motilin receptor; in assay [1]; in assay [2]; in assay [3]; in assay [4]; in assay [5]) was greater than 30 µM each time. Further, the AC50 at D(1A) dopamine receptor was greater than 30 µM; in [6], greater than 30 µM; in assay [7] it was greater than 30 µM; in [8] it was greater than 30 µM; in assay [9], greater than 30 µM; on Bile salt export pump, 5.9 µM.

Regarding `CCOC(=O)[C@H](CCc1ccccc1)N[C@@H](C)C(=O)N1CCC[C@H]1C(=O)O`, the AC50 is greater than 10 µM on Motilin receptor; greater than 30 µM in [1]; greater than 10 µM in assay [2]; greater than 10 µM in assay [3]; greater than 30 µM in [4]; greater than 10 µM in [5]. Besides, the AC50 at D(1A) dopamine receptor is greater than 10 µM; in [6], greater than 30 µM; in assay [7], greater than 10 µM; in [8], greater than 10 µM; in assay [9], greater than 10 µM; at Bile salt export pump it was greater than 300 µM.

For `Nc1nc(N)c2nc(-c3ccccc3)c(N)nc2n1`, the AC50 (on Motilin receptor; in [1]; in assay [2]; in assay [3]; in [4]; in assay [5]) was greater than 30 µM throughout. The AC50 at D(1A) dopamine receptor was greater than 30 µM; in assay [6], greater than 30 µM; in [7], greater than 30 µM; in [8], greater than 30 µM; in assay [9], greater than 30 µM; on Bile salt export pump it was greater than 300 µM.

Consider `C[C@H]1O[C@H](O[C@H]2[C@H](O)[C@@H](O)[C@@H](O[C@H]3[C@H](O)[C@@H](O)C(O)O[C@@H]3CO)O[C@@H]2CO)[C@H](O)[C@@H](O)[C@@H]1N[C@H]1C=C(CO)[C@@H](O)[C@H](O)[C@H]1O` (stereo partly specified) [ACARBOSE], for which the AC50 is greater than 30 µM on Motilin receptor; greater than 30 µM in assay [1]; greater than 30 µM in [2]; greater than 10 µM in assay [3]; greater than 30 µM in assay [4]; greater than 10 µM in assay [5]. Besides, the AC50 is greater than 10 µM on D(1A) dopamine receptor; greater than 30 µM in [6]; greater than 30 µM in assay [7]; greater than 30 µM in assay [8]; greater than 30 µM in [9]; greater than 300 µM at Bile salt export pump.

Regarding `CC(=O)c1ccc2c(c1)N(CCCN1CCN(CCO)CC1)c1ccccc1S2` [ACETOPHENAZINE], the AC50 was 27 µM at Motilin receptor; greater than 30 µM in assay [1]; greater than 30 µM in [2]; greater than 30 µM in assay [3]; greater than 30 µM in assay [4]; greater than 30 µM in [5]. Also, the AC50 is greater than 30 µM at D(1A) dopamine receptor; greater than 30 µM in [6]; 1.2 µM in [7]; 25 µM in assay [8]; greater than 30 µM in assay [9]; greater than 300 µM on Bile salt export pump.

In the case of `CC(N)Cc1ccccc1` (stereo unspecified) [AMPHETAMINE], the AC50 (on Motilin receptor; in assay [1]; in assay [2]; in assay [3]; in [4]; in assay [5]) was greater than 30 µM throughout. The AC50 in assay [6] was greater than 30 µM; in assay [7] it was greater than 30 µM; in assay [9], greater than 30 µM; at Bile salt export pump, greater than 300 µM.

As to `CN1CCCC(n2nc(Cc3ccc(Cl)cc3)c3ccccc3c2=O)CC1` (stereo unspecified) [AZELASTINE], the AC50 on Motilin receptor was greater than 30 µM; in assay [1] it was 14 µM; in [2], greater than 30 µM; in assay [4], greater than 30 µM; in assay [5] it was greater than 30 µM; at D(1A) dopamine receptor, greater than 30 µM. Also, the AC50 in [6] is greater than 30 µM; in [7] it was 0.86 µM; in [8], 7.3 µM; in assay [9], greater than 30 µM; on Bile salt export pump it was greater than 100 µM.

`CCN(CC)CCNC(=O)c1cc(Cl)c(N)cc1OC` [METOCLOPRAMIDE]: the AC50 is greater than 10 µM at Motilin receptor; greater than 30 µM in assay [1]; greater than 30 µM in [2]; greater than 30 µM in assay [4]; greater than 30 µM in assay [5]; greater than 10 µM on D(1A) dopamine receptor. Further, the AC50 in [6] was greater than 30 µM; in assay [7], greater than 10 µM; in [8], greater than 10 µM; in assay [9], greater than 10 µM; at Bile salt export pump, greater than 300 µM.

As to `Cc1cccc(C)c1OCC(C)N` (stereo unspecified) [MEXILETINE], the AC50 (on Motilin receptor; in [1]; in [2]; in assay [3]; in assay [4]; at D(1A) dopamine receptor) was greater than 30 µM throughout. The AC50 in [6] is greater than 30 µM; in assay [7], greater than 30 µM; in assay [8] it was greater than 30 µM; in assay [9] it was greater than 30 µM; on Bile salt export pump, greater than 300 µM.

Take `CNC(=O)c1cc(Oc2ccc(NC(=O)Nc3ccc(Cl)c(C(F)(F)F)c3)cc2)ccn1` [SORAFENIB]: the AC50 was 2.8 µM at Motilin receptor; greater than 30 µM in [1]; greater than 30 µM in assay [2]; greater than 30 µM in [3]; greater than 30 µM in [4]; greater than 30 µM in [5]. The AC50 at D(1A) dopamine receptor is greater than 30 µM; in assay [6] it was greater than 30 µM; in assay [7], greater than 30 µM; in assay [8] it was 6.85 µM; on Bile salt export pump, 2 µM.

Broadly, the AC50 is the concentration giving half of the maximal activity seen.
